Oligonucleotides are written 5' to 3', each unit as a sugar letter and its base; * is a phosphorothioate linkage, no mark a phosphodiester; rarer units and linkages stand in square brackets, end groups in braces. Plain capitals give the bases only. e = 2'-O-(2-methoxyethyl) (MOE); [5mC] = 5-methylcytosine
Test system: IKBKAP pre-mRNA (mt19-21 minigene)
Test: Exon 20 inclusion in HEK-293 cells harboring the mt19-21 IKBKAP minigene (RT-PCR)
Format: cell-based, human
Settings: HEK-293 with mt19-21 minigene; for % inclusion (exon 20): 0.007 nmol oligonucleotide by electroporation, RT-PCR two days later; for effect on exon 20 inclusion/skipping, in words: 0.007 nmol oligonucleotide
Protocol: Antisense oligonucleotides were designed targeting a human IKBKAP nucleic acid and were tested for their effects on IKBKAP pre-mRNA in vitro. Together, the overlapping antisense oligonucleotides spanned the entire 74-nucleotide region of the IKBKAP exon 20 sequence, as well as the 100-nucleotide intronic regions immediately upstream and downstream of exon 20. The antisense oligonucleotides are presented in Table 1, and were designed as uniform 2′-O-methoxyethyl ribose (MOE) oligonucleotides with phosphate backbones. Each oligonucleotide is 15 nucleosides in length. All cytosine residues throughout the oligonucleotide are 5-methylcytosines. ‘Start Site’ indicates the 5′-most nucleoside to which the oligonucleotide is targeted in the human gene sequence. “Stop site” indicates the 3′-most nucleoside to which the oligonucleotide is targeted in the human gene sequence. Each oligonucleotide listed in Table 1 is targeted to the human IKBKAP genomic sequence (the complement of GENBANK Accession No NT_008470.16 truncated from nucleotides 13290828 to Ser. No. 13/358,424, designated herein as SEQ ID NO: 1). ISIS 414161 has one mismatch with SEQ ID NO: 1.
Cultured HEK-293 cells harboring the mt19-21 minigene vector construct at a density of 7×10^5 cells per well were transfected using electroporation (Gene Pulsar II apparatus, Bio-Rad) with 0.007 nmol antisense oligonucleotide, as previously described (Hua, Y., et al., 2007. PLoS Biol 5:e73). […] These oligonucleotides served as controls for non-specific effects of uniform MOE oligonucleotides with phosphate backbones. Cells harboring the wt19-21 minigene and the mt19-21 minigene alone were also cultured and were used as controls for exon 20 inclusion levels. Two days later, cDNA synthesized from total RNA extracted from HEK-293 cells was amplified using the forward primer pCDNAF and reverse primer sequence IKAP21R4 to assay the splicing pattern of expressed RNAs by RT-PCR. To calculate exon 20 inclusion levels, the PCR amplicons were labeled with α^32P-dCTP. The PCR products were then separated by native PAGE, followed by phosphorimage analysis on a FUJIFILM FLA-5100 instrument (Fuji Medical Systems USA Inc.). The band intensities were quantified using Multi Gauge software Version 2.3 (FUJIFILM), and values were normalized for the G+C content according to the DNA sequence.
Treatment with antisense oligonucleotides targeting the 3′ and 5′ splice sites caused increased skipping of exon 20.
Additional oligonucleotides were designed targeting the first 30-nucleotide stretch of ISS-40. These oligonucleotides were designed by choosing sequences shifted in one nucleotide increments upstream and downstream (i.e., a “microwalk”) of ISS-40, starting from the +6 position in exon 20. The antisense oligonucleotides are presented in Table 2 and FIG. 4D, and were designed as uniform 2′-O-methoxyethyl ribose (MOE) oligonucleotides with phosphate backbones. Each oligonucleotide is 20 nucleosides in length. All cytosine residues throughout the oligonucleotide are 5-methylcytosines. ‘Start Site’ indicates the 5′-most nucleoside to which the oligonucleotide is targeted in the human gene sequence. “Stop site” indicates the 3′-most nucleoside to which the oligonucleotide is targeted in the human gene sequence. Each oligonucleotide listed in Table 2 is targeted to intron 20 of the human IKBKAP genomic sequence (the complement of GENBANK Accession No NT_008470.16 truncated from nucleotides 13290828 to Ser. No. 13/358,424, designated herein as SEQ ID NO: 1). These oligonucleotides were tested in vitro.
Cultured HEK-293 cells harboring the mt19-21 minigene vector construct at a density of 7×10^5 cells per well were transfected using electroporation (Gene Pulsar II apparatus, Bio-Rad) with 0.007 nmol antisense oligonucleotide, as previously described (Hua, Y., et al., 2007. PLoS Biol 5:e73). […]

ISIS 414172: uniform 2′-MOE 15-mer, phosphate backbone; ATTGTAATAAAATAC, SEQ ID NO 51, intron 20 (eAeTeTeGeTeAeAeTeAeAeAeAeTeAe[5mC]; splice-switching)
% inclusion (exon 20) (Table 1): 31%

ISIS 414148: uniform 2′-MOE 15-mer, phosphate backbone; TCTAAGTTTCCCCTT, SEQ ID NO 27, exon 20 (eTe[5mC]eTeAeAeGeTeTeTe[5mC]e[5mC]e[5mC]e[5mC]eTeT; splice-switching)
% inclusion (exon 20) (Table 1): 7%

ISIS 421994: uniform 2′-MOE 20-mer, phosphate backbone; TAGTCGCAAACAGTACAATG, SEQ ID NO 63, intron 20 (eTeAeGeTe[5mC]eGe[5mC]eAeAeAe[5mC]eAeGeTeAe[5mC]eAeAeTeG; splice-switching)
% inclusion (exon 20) (Table 2 (microwalk experiment)): 91%

ISIS 414138: uniform 2′-MOE 15-mer, phosphate backbone; AAACATTTAAATAGC, SEQ ID NO 17, intron 19 (eAeAeAe[5mC]eAeTeTeTeAeAeAeTeAeGe[5mC]; splice-switching)
% inclusion (exon 20) (Table 1): 23%

ISIS 414155: uniform 2′-MOE 15-mer, phosphate backbone; TCTGAGCTAAAACCA, SEQ ID NO 34, exon 20 (eTe[5mC]eTeGeAeGe[5mC]eTeAeAeAeAe[5mC]e[5mC]eA; splice-switching)
% inclusion (exon 20) (Table 1): 6%

ISIS 414167: uniform 2′-MOE 15-mer, phosphate backbone; CACACATAAATCACA, SEQ ID NO 46, intron 20 (e[5mC]eAe[5mC]eAe[5mC]eAeTeAeAeAeTe[5mC]eAe[5mC]eA; splice-switching)
effect on exon 20 inclusion/skipping, in words: significantly decreased the levels of the included RNA isoform | % inclusion (exon 20) (Table 1): 13%

ISIS 421993: uniform 2′-MOE 20-mer, phosphate backbone; AGTCGCAAACAGTACAATGG, SEQ ID NO 62, intron 20 (eAeGeTe[5mC]eGe[5mC]eAeAeAe[5mC]eAeGeTeAe[5mC]eAeAeTeGeG; splice-switching)
% inclusion (exon 20) (Table 2 (microwalk experiment)): 87%

ISIS 414142: uniform 2′-MOE 15-mer, phosphate backbone; AACATTTTTAATTAA, SEQ ID NO 21, intron 19 (eAeAe[5mC]eAeTeTeTeTeTeAeAeTeTeAeA; splice-switching)
% inclusion (exon 20) (Table 1): 23%

ISIS 414170: uniform 2′-MOE 15-mer, phosphate backbone; AATACTTATTGTCTT, SEQ ID NO 49, intron 20 (eAeAeTeAe[5mC]eTeTeAeTeTeGeTe[5mC]eTeT; splice-switching)
% inclusion (exon 20) (Table 1): 32%

ISIS 414147: uniform 2′-MOE 15-mer, phosphate backbone; GTTTCCCCTTGGCAT, SEQ ID NO 26, exon 20 (eGeTeTeTe[5mC]e[5mC]e[5mC]e[5mC]eTeTeGeGe[5mC]eAeT; splice-switching)
% inclusion (exon 20) (Table 1): 3%

ISIS 414163: uniform 2′-MOE 15-mer, phosphate backbone; ACTAGTCGCAAACAG, SEQ ID NO 42, intron 20 (eAe[5mC]eTeAeGeTe[5mC]eGe[5mC]eAeAeAe[5mC]eAeG; splice-switching)
effect on exon 20 inclusion/skipping, in words: markedly increased inclusion of exon 20 | % inclusion (exon 20) (Table 1): 74% | % inclusion (exon 20) (Table 2 (microwalk experiment)): 74%

ISIS 414173: uniform 2′-MOE 15-mer, phosphate backbone; TCGAAATTGTAATAA, SEQ ID NO 52, intron 20 (eTe[5mC]eGeAeAeAeTeTeGeTeAeAeTeAeA; splice-switching)
% inclusion (exon 20) (Table 1): 31%

ISIS 414176: uniform 2′-MOE 15-mer, phosphate backbone; CATAATTTTAAGTTC, SEQ ID NO 55, intron 20 (e[5mC]eAeTeAeAeTeTeTeTeAeAeGeTeTe[5mC]; splice-switching)
% inclusion (exon 20) (Table 1): 31%

ISIS 414143: uniform 2′-MOE 15-mer, phosphate backbone; GCAGTAACATTTTTA, SEQ ID NO 22, intron 19 (eGe[5mC]eAeGeTeAeAe[5mC]eAeTeTeTeTeTeA; splice-switching)
% inclusion (exon 20) (Table 1): 8%

ISIS 414165: uniform 2′-MOE 15-mer, phosphate backbone; TCACAAGCTAACTAG, SEQ ID NO 44, intron 20 (eTe[5mC]eAe[5mC]eAeAeGe[5mC]eTeAeAe[5mC]eTeAeG; splice-switching)
effect on exon 20 inclusion/skipping, in words: markedly increased inclusion of exon 20 | % inclusion (exon 20) (Table 1): 66% | % inclusion (exon 20) (Table 2 (microwalk experiment)): 64%

ISIS 414135: uniform 2′-MOE 15-mer, phosphate backbone; CAGGATACACCATTT, SEQ ID NO 14, intron 19 (e[5mC]eAeGeGeAeTeAe[5mC]eAe[5mC]e[5mC]eAeTeTeT; splice-switching)
effect on exon 20 inclusion/skipping, in words: positive effect on exon 20 inclusion | % inclusion (exon 20) (Table 1): 46%

ISIS 422000: uniform 2′-MOE 20-mer, phosphate backbone; GCTAACTAGTCGCAAACAGT, SEQ ID NO 69, intron 20 (eGe[5mC]eTeAeAe[5mC]eTeAeGeTe[5mC]eGe[5mC]eAeAeAe[5mC]eAeGeT; splice-switching)
% inclusion (exon 20) (Table 2 (microwalk experiment)): 63%

ISIS 414141: uniform 2′-MOE 15-mer, phosphate backbone; TTTTAATTAAGTAGA, SEQ ID NO 20, intron 19 (eTeTeTeTeAeAeTeTeAeAeGeTeAeGeA; splice-switching)
% inclusion (exon 20) (Table 1): 24%

ISIS 414151: uniform 2′-MOE 15-mer, phosphate backbone; CGATGATGAACAACT, SEQ ID NO 30, exon 20 (e[5mC]eGeAeTeGeAeTeGeAeAe[5mC]eAeAe[5mC]eT; splice-switching)
% inclusion (exon 20) (Table 1): 0%

ISIS 414169: uniform 2′-MOE 15-mer, phosphate backbone; TTATTGTCTTCACAC, SEQ ID NO 48, intron 20 (eTeTeAeTeTeGeTe[5mC]eTeTe[5mC]eAe[5mC]eAe[5mC]; splice-switching)
% inclusion (exon 20) (Table 1): 21%

ISIS 421996: uniform 2′-MOE 20-mer, phosphate backbone; ACTAGTCGCAAACAGTACAA, SEQ ID NO 65, intron 20 (eAe[5mC]eTeAeGeTe[5mC]eGe[5mC]eAeAeAe[5mC]eAeGeTeAe[5mC]eAeA; splice-switching)
% inclusion (exon 20) (Table 2 (microwalk experiment)): 89%

ISIS 414132: uniform 2′-MOE 15-mer, phosphate backbone; TACCTAACTCTTCAC, SEQ ID NO 11, intron 19 (eTeAe[5mC]e[5mC]eTeAeAe[5mC]eTe[5mC]eTeTe[5mC]eAe[5mC]; splice-switching)
% inclusion (exon 20) (Table 1): 19%

ISIS 414168: uniform 2′-MOE 15-mer, phosphate backbone; GTCTTCACACATAAA, SEQ ID NO 47, intron 20 (eGeTe[5mC]eTeTe[5mC]eAe[5mC]eAe[5mC]eAeTeAeAeA; splice-switching)
effect on exon 20 inclusion/skipping, in words: significantly decreased the levels of the included RNA isoform | % inclusion (exon 20) (Table 1): 17%

ISIS 414150: uniform 2′-MOE 15-mer, phosphate backbone; ATGAACAACTTCTAA, SEQ ID NO 29, exon 20 (eAeTeGeAeAe[5mC]eAeAe[5mC]eTeTe[5mC]eTeAeA; splice-switching)
% inclusion (exon 20) (Table 1): 5%

ISIS 414158: uniform 2′-MOE 15-mer, phosphate backbone; CCAACCACTTCCGAA, SEQ ID NO 37, exon 20 (e[5mC]e[5mC]eAeAe[5mC]e[5mC]eAe[5mC]eTeTe[5mC]e[5mC]eGeAeA; splice-switching)
% inclusion (exon 20) (Table 1): 1%
